In US12678509B2, “Inhibitor of apoptosis (IAP) protein antagonists” (Sanford Burnham Prebys Medical Discovery Institute, priority 2019, dated 2026):

Columns and labels:
[1] = Pharmacokinetic study in mice, snapshot PK; format: in vivo; conditions: female, C57BL/6J, mouse, plasma, ip, one hour after i.p. injection of 10 mg/kg
Method: All animal procedures were approved by the Sanford Burnham Prebys Medical Discovery Institute Institutional Animal Care and Use Committee and were performed according to the NIH guidelines for the Care and Use of Laboratory Animals. Adult female C57BL/6J were purchased from JAX laboratories and housed with free access to food and water on a 12 h light/dark cycle. Compounds were formulated in 5% DMSO, 10% Tween-80, and 85% dH2O and injected intraperitoneally (i.p.) into mice at doses of 10 mg/kg. For snapshot PK analysis, blood samples were collected retro-orbitally one hour after injection and for the time course PK study, blood samples were collected at 15 min, 30 min, 1 h, 2 h, 4 h, 6 h, 24 h time points. For the blood samples plasma was separated by centrifugation. Plasma samples were extracted with acetonitrile:water 4:1 with 0.1% formic acid containing indometacin as an internal standard. Samples were centrifuged and supernatants were diluted with acetonitrile:water and analyzed via LC-MS/MS on a Shimadzu Nexera X2 HPLC coupled to an AB Sciex 6500 QTRAP.
Plasma exposure of selected compounds at 1 h compared.
Plasma levels of parent compound determined one hour after i.p. injection of 10 mg/kg

[2] = tested on: MOLM 13; test: Cell viability (CellTiter-Glo), 6-day compound treatment; format: cell-based, Human; conditions: Homo sapiens, MOLM-13, 144 h, read-out: MOLM 13 Viability 6 d IC50
Method: The compound 18a was tested in 16 different cell lines. For 6-day compound treatment 1700 cells per well were plated in a 384-well plate (Corning #781098) and incubated overnight at 37° C./5% CO2. The following day, compounds in 10-fold dilutions were added to the plates and the plates were incubated for 6 days. Afterwards, 20 μL CellTiter-Glo reagent (Promega, #G7570) was added to each well outside of the incubator and the plates were read for luminescence on a Spark® multimode microplate reader (Tecan). Data was fit in GraphPad Prism 8 to a nonlinear regression curve to determine the IC50 of the compounds. […]

[3] = tested on: SKOV-3; test: Cell viability (CellTiter-Glo), 48 hrs; format: cell-based; conditions: Homo sapiens, SK-OV-3, 48 h, read-out: SKOV-3 Viability 48 h IC50
Method: One thousand seven hundred cells per well were plated in a 384 well plate and incubated overnight at 37° C./5% CO2. The following day, compounds in 10-fold dilutions were added to the plates and the plates returned to the incubator for 48 hrs. 48 hrs later, plates were removed to the bench and 20 μL CellTiter-Glo reagent was added to each well and the plates were read for luminescence on a Spark® multimode microplate reader (Tecan). Data were fit using PRISM to a nonlinear regression curve to determine the IC50 of the compounds.

[4] = tested on: AML-SH-075; test: Cell viability in patient derived AML samples (CellTiterGlo, 72 h); format: cell-based, human; conditions: for IC50: Homo sapiens, 72 h, read-out: AML-SH-075 IC50; for AML-SH-075 Efficacy: patient derived AML sample AML-SH-075, 72 h, cell viability at max. concentration
Method: (§1) Patient AML samples were gathered (under IRB 13-6180) from Scripps MD Anderson, La Jolla, CA Fresh blood samples were subjected to gradient density centrifugation with Ficoll-Paque™ PLUS (17-1440-02, GE Healthcare) and peripheral blood mononuclear cells purified as per manufacturer's protocol.
(§2) 75 nL of 1000× serially diluted IAP inhibitors were spotted in triplicate onto 384-well tissue culture treated plates (Greiner) using a Labcyte Echo acoustic dispensing device. Patient-derived AML cells were maintained in mTeSR1^+1× supplements (Stemcell Technologies) and penicillin/streptomycin/L-glutamine (Omega Scientific Inc.) and Fungizone (HyClone). 25 μL of cell dilution were plated into 384-well plate containing the drugs and incubated for 72 h. Cell viability was assessed by adding 25 μL CellTiterGlo (Promega Corp.) on a Synergy 2 plate reader with Gen5 software (Biotek). % viability was calculated by normalizing luminescence to vehicle only controls (DMSO) in Microsoft Excel and plotted using GraphPad Prism 8. The IC50 values were calculated using log(inhibitor) vs. response—Variable slope (four parameters) equation. (FIG. 6)

[5] = tested on: AML-SH-074; test: as above; format: cell-based, human; conditions: for IC50: Homo sapiens, 72 h, read-out: AML-SH-074 IC50; for AML-SH-074 Efficacy: patient derived AML sample AML-SH-074, 72 h, cell viability at max. concentration
Method: as §1, §2

[6] = tested on: AML-SH-065; test: as above; format: cell-based, human; conditions: for IC50: Homo sapiens, 72 h, read-out: AML-SH-065 IC50; for AML-SH-065 Efficacy: patient derived AML sample AML-SH-065, 72 h, cell viability at max. concentration
Method: as §1, §2

[7] = tested on: NB-4; test: Cell viability (CellTiter-Glo); format: cell-based, Human; conditions: Homo sapiens, NB-4, 72 h, read-out: NB-4 Viability 72 h IC50
Method: The compound 18a was tested in 16 different cell lines. For 6-day compound treatment 1700 cells per well were plated in a 384-well plate (Corning #781098) and incubated overnight at 37° C./5% CO2. […] Afterwards, 20 μL CellTiter-Glo reagent (Promega, #G7570) was added to each well outside of the incubator and the plates were read for luminescence on a Spark® multimode microplate reader (Tecan). Data was fit in GraphPad Prism 8 to a nonlinear regression curve to determine the IC50 of the compounds. […]

[8] = tested on: latently infected cell line Jurkat 2D10; test: HIV Jurkat 2D10 cells GFP+ assay (reversal of HIV latency); format: cell-based; conditions: Homo sapiens, Jurkat, 48 h, read-out: Jurkat 2D10 GFP+ EC50
Method: Several compounds (Table 5) were tested for their efficacy in the reversal of HIV latency in the latently infected cell line Jurkat 2D10. Jurkat 2D10 cells were treated with different doses of the compounds, or one of the following compounds: BV-6, SM-164, Birinapant, LCL-161, GDC-0152, AT-406 for 48 hours. Reversal of HW latency was evaluated by analyzing GFP expression using flow cytometry. Induction of GFP expression was compared to baseline GFP levels detected in the absence of treatment.

[9] = target: BIR3 domain of cIAP1 (Homo sapiens, UniProt Q13490); test: Fluorescence polarization assay; format: binding; conditions: SMAC-FITC probe, Ki calculated from IC50
BIR3 domain of cIAP1, sequence (Q13490 253-363 limits assumed): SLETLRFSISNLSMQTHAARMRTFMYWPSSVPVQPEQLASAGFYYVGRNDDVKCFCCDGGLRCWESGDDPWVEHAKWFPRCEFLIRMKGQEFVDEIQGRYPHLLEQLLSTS
Method: (§3) Binding of compounds to ML-IAP and BIR3 domain of cIAP1, cIAP2 and XIAP was determined by fluorescence polarization. Assay buffer was 100 mM KH2PO4 at pH 7.5, 50 μM ZnSO4, 1 mM TCEP (Tris(2-carboxyethyl)phosphine hydrochloride) and 50 nM SMAC-FITC probe (AbuRPF-K(5-Fam)-NH2) as described by Z. Nikolovska-Coleska et al.^9. cIAP1 and XIAP were present at 800 nM while cIAP2 and MLIAP were present at 1.5 μM. Compounds in 3-fold dilutions were added to the plates ranging from 30 μM to 1.5 nM. Assays were run in 384-well black plates read (Greiner Bio-One #784076) in an Analyst in fluorescence polarization mode with excitation at 485 nm and emission at 535 nm. Data was fit to a nonlinear regression curve in GraphPad Prism 8 to determine the IC50 values of the compounds. Ki's were then calculated from the IC50 values using equation: Ki=[I]50/([L]50/Kd+[P]0/Kd+1) formulated by Z. Nikolovska-Coleska et al.

[10] = target: T1, ML-IAP (Homo sapiens, UniProt Q96CA5); test: Fluorescence polarization assay; format: binding; conditions: SMAC-FITC probe, Ki calculated from IC50
T1 sequence (Q96CA5 1-298): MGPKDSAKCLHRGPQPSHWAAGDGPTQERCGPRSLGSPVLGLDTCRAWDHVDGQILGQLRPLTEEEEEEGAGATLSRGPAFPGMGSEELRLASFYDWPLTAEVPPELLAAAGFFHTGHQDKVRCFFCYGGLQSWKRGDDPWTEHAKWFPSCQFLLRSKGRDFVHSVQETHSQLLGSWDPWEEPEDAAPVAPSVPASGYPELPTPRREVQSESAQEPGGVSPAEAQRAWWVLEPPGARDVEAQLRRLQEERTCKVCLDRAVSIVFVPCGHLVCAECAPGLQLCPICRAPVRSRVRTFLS
Method: as §3

[11] = target: BIR3 domain of XIAP (Homo sapiens, UniProt P98170); test: Fluorescence polarization assay; format: binding; conditions: SMAC-FITC probe, Ki calculated from IC50
BIR3 domain of XIAP, sequence (P98170 241-356 limits assumed): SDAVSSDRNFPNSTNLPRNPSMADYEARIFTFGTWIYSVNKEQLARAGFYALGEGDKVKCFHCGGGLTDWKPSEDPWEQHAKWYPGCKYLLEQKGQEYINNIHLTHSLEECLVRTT
Method: as §3

[12] = target: BIR3 domain of cIAP2 (Homo sapiens, UniProt Q13489); test: Fluorescence polarization assay; format: binding; conditions: SMAC-FITC probe, Ki calculated from IC50
BIR3 domain of cIAP2, sequence (Q13489 238-349 limits assumed): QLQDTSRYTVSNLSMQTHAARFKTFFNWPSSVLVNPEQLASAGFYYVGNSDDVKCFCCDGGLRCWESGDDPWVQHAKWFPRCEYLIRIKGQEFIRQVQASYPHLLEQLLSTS
Method: as §3

Compound | concentration at 1 h [1] | IC50 [2] | IC50 [3] | IC50 [4] | AML-SH-075 Efficacy [4] | IC50 [5] | AML-SH-074 Efficacy [5] | IC50 [6] | AML-SH-065 Efficacy [6] | IC50 [7] | EC50 [8] | Ki [9] | Ki [10] | Ki [11] | Ki [12]
CN[C@@H](C)C(=O)N[C@H]1CCS[C@H]2CC(C)(C)[C@@H](C(=O)N[C@H]3c4ccccc4C[C@H]3OCC#Cc3ccc(C#CCO[C@@H]4Cc5ccccc5[C@@H]4NC(=O)[C@H]4N5C(=O)[C@@H](NC(=O)[C@H](C)NC)CCS[C@H]5CC4(C)C)cc3)N2C1=O [Compound 18c] | 1310 nM | 10 to 100 nM | < 10 nM | 1000 to 10000 nM | I (I < 10%) | 100 to 1000 nM | I (I < 10%) | 10 to 100 nM | I (I < 10%) | < 10 nM | 1 to 10 nM | ≤ 50 nM | 50 to 100 nM | ≤ 50 nM | 50 to 100 nM
CN[C@@H](C)C(=O)N[C@H]1CCS[C@H]2CC(C)(C)[C@@H](C(=O)N[C@H]3c4ccccc4C[C@H]3OCC#Cc3ccc(CO[C@@H]4Cc5ccccc5[C@@H]4NC(=O)[C@H]4N5C(=O)[C@@H](NC(=O)[C@H](C)NC)CCS[C@H]5CC4(C)C)cc3)N2C1=O [Compound 18e, (2S)-1-{[(4S,7S,9aS)-7-{[(1S,2R)-2-({3-[4-({[(1S,2R)-1-({[(4S,7S,9aS)-8,8-Dimethyl-4-{[(2S)-2-(methylammonio)propanoyl]amino}-5-oxooctahydropyrrolo[2,1-b][1,3]thiazepin-7-yl]carbonyl}amino)-2,3-dihydro-1H-inden-2-yl]oxy}methyl)phenyl]prop-2-ynyl}oxy)-2,3-dihydro-1H-inden-1-yl]carbamoyl}-8,8-dimethyl-5-oxooctahydropyrrolo[2,1-b][1,3]thiazepin-4-yl]amino}-N-methyl-1-oxopropan-2-ammonium dichloride] | 6200 nM | 100 to 1000 nM | < 10 nM | 1000 to 10000 nM | I (I < 10%) | 100 to 1000 nM | I (I < 10%) | 10 to 100 nM | I (I < 10%) | 10 to 100 nM | < 1 nM | 50 to 100 nM | 100 to 200 nM | ≤ 50 nM | 100 to 200 nM
CN[C@@H](C)C(=O)N[C@H]1CCS[C@H]2CC(C)(C)[C@@H](C(=O)N[C@H]3c4ccccc4C[C@H]3OCc3ccc(CO[C@@H]4Cc5ccccc5[C@@H]4NC(=O)[C@H]4N5C(=O)[C@@H](NC(=O)[C@H](C)NC)CCS[C@H]5CC4(C)C)cc3)N2C1=O [Compound 18g, (2S)-1-{[(4S,7S,9aS)-7-{[(1S,2R)-2-{[4-({[(1S,2R)-1-({[(4S,7S,9aS)-8,8-Dimethyl-4-{[(2S)-2-(methylammonio)propanoyl]amino}-5-oxooctahydropyrrolo[2,1-b][1,3]thiazepin-7-yl]carbonyl}amino)-2,3-dihydro-1H-inden-2-yl]oxy}methyl)benzyl]oxy}-2,3-dihydro-1H-inden-1-yl]carbamoyl}-8,8-dimethyl-5-oxooctahydropyrrolo[2,1-b][1,3]thiazepin-4-yl]amino}-N-methyl-1-oxopropan-2-ammonium dichloride] | 2680 nM | 10 to 100 nM | < 10 nM | 10 to 100 nM | I (I < 10%) | 100 to 1000 nM | I (I < 10%) | 10 to 100 nM | I (I < 10%) | < 10 nM | 1 to 10 nM | ≤ 50 nM | 50 to 100 nM | ≤ 50 nM | 50 to 100 nM
